Measurements taken from patent publication US8012481B2, “Composition and method for inducing or restoring locomotor functions in an animal” (Universite Laval, priority 2004, dated 2011).

Key:
Assay type in all cases: in vivo, mouse
[1] = tested on: paraplegic mice (lumbar spinal cord circuitry for hindlimb locomotion); assay: Hindlimb movement generation (LM/NLM) on a motor-driven treadmill in complete spinal cord transected mice; details: for induction of LM: some NLM were found; for mice in which a mixture of LM and NLM was induced: 7 animals/group
paraplegic mice [2] = assay: Hindlimb movement generation in paraplegic mice, air-stepping and/or treadmill not separated; BBB and AOB scales; details: for induction of LM / induction of NLM: increasing doses, air-stepping and treadmill conditions, FIG. 13; for effect of 5-HT1A antagonist pretreatment on 8-OH-DPAT-induced LM: antagonist 2 mg/kg
Protocol: Animals and Treatment. We tested one hundred and ninety five (n=195) male and female adult CD1 and C57BL/6 mice weighing 30-40 grams prior to the study (Charles River Laboratory, St-Constant, Canada). […] Animals were spinalized 7 days prior to testing (exceptionally tested sometimes at 15 days post-spinalization, e.g., FIG. 17). A complete transection of the spinal cord was performed intervertebrally between the 9th and 10th vertebrae in isoflurane (2.5%) anesthetized animals. Complete spinalization was confirmed by 1) full paralysis of the hindlimbs, 2) post-mortem examination of the spinal cord microscopically and, in some cases, 3) staining transverse or sagittal spinal cord sections with luxol fast blue/cresyl violet for myelinated axons and nissl substance respectively. All mice received pre-operative care and post-operative care including lactate-Ringer's solution (2 ml/day, s.c.), analgesic (buprenorphine 0.2 mg/kg/day, s.c.) and antibiotic (baytril 5 mg/kg/day, s.c.). Bladders were emptied manually and animals were left in their cage without other interventions with food and water ad libitum until testing. Mice received a single injection (i.p.) of either 8-OHDPAT (5-HT1A/7); 5-CT (5-HT1A/7 agonist); buspirone (5-HT1A agonist); TFMPP (5-HT1B/2C agonist); quipazine (5-HT2B/2C); m-CPP (5-HT2B/2C agonist); SR-57227A (5-HT3) one week post-spinalization. […] The contribution of spinal 5-HT4/5/6 receptor activation to hindlimb movement generation in spinalized animals were not tested either because selective ligands are not available or because no significant expression levels have been found for these receptor subtypes in the mammalian spinal cord (see Schmidt and Jordan, Brain Res Bull 2000).
Hindlimb movement recording. Hindlimb movements were filmed (digital video camera 3 Com Home-connect, 30 frames/sec) immediately prior to injection and at fixed delays after injection in animals either suspended (air-stepping condition) or placed on a treadmill running at a speed of 8-10 cm/sec (treadmill condition). A harness was put around the torso and the waist either to completely suspend animals (air-stepping) or to maintain them in front of the camera on the treadmill (not weight support was provided). Animals were not stimulated otherwise. Locomotor-like movements were defined as rhythmic flexions and extensions occurring in both hindlimbs alternatively. Body weight support and plantar foot placement were facultative and therefore not required to be counted as locomotor-like (LM). In turn, non-locomotor movements (NLM) were defined as non-bilaterally alternating hindlimb movements most often including spasms, kicks, uncoordinated or unilateral movements, etc. In some cases, qualitative assessment methods were used to evaluate the level of induced hindlimb movements. The BBB locomotor scale (Basso, Bresnahan and Beattie, Exp Neurol 1996) and the AOB motor scale (Antri, Orsal and Barthe, Eur J Neurosci 2002) were also occasionally used.

[3] = tested on: paraplegic mice (lumbar spinal cord circuitry for hindlimb locomotion); assay: Hindlimb movement generation (LM/NLM) on a motor-driven treadmill in complete spinal cord transected mice
Protocol: (§1) Animals and Treatment Thirty-two (n=32) male or female adult CD1 mice weighing 30-40 grams were tested prior to the study (Charles River Laboratory, St-Constant, Canada). The experiment was conducted in a Canadian Council on Animal Care approved facility in accordance with the CCAC Guide for Care and Use of Experimental Animals. Animals were spinalized 7-9 days prior to testing. A complete transection of the spinal cord was performed intervertebrally between the 9th and 10th vertebrae in isoflurane (2.5%) anesthetized animals. Complete spinalization was confirmed by 1) full paralysis of the hindlimbs, 2) post-mortem examination of the spinal cord microscopically and, in some cases, 3) staining transverse or sagittal spinal cord sections with luxol fast blue/cresyl violet for myelinated axons and nissl substance respectively. All mice received pre-operative care and post-operative care including lactate-Ringer's solution (2 ml/day, s.c.), analgesic (buprenorphine 0.2 mg/kg/day, s.c.) and antibiotic (baytril 5 mg/kg/day, s.c.). Bladders were emptied manually and animals were left in their cage without other interventions with food and water ad libitum until testing.
Hindlimb movement recording. Hindlimb movements were filmed (digital video camera 3 Com Home-connect, 30 frames/sec), 1) immediately prior to injection and, 2) at fixed delays after injection in animals placed on a treadmill running at a speed of 8-10 cm/sec (treadmill condition). A harness was put around the torso and the waist to maintain them in front of the camera on the treadmill (not weight support was provided). Animals were not stimulated otherwise. Hindlimb movements were assessed either as locomotor-like movements (LM) or non-locomotor movements (NLM) Locomotor-like movements were defined as rhythmic flexions and extensions occurring in both hindlimbs alternatively. Body weight support and plantar foot placement were facultative and therefore not required to be counted as locomotor-like (LM). In turn, non-locomotor movements (NLM) were defined as non-bilaterally alternating hindlimb movements most often including spasms, kicks, uncoordinated or unilateral movements, etc. Levels of weight supported movements and of plantar foot placements were assessed as either none, occasional, or frequent.
as §1, with “and Treatment. Twenty-nine (n=29)” for “and Treatment Thirty-two (n=32)”, “male and” for “male or”, “grams” for “grams were tested”, “spinalized 7” for “spinalized 7-9”, “(baytril” for “(baytril 5”
Hindlimb movement recording, Hindlimb movements were filmed (digital video camera 3 Com Home-connect, 30 frames/sec) immediately prior to injection and at fixed delays after injection in animals suspended (air-stepping condition) or placed on a treadmill running at a speed of 8-10 cm/sec (treadmill condition). A harness was put around the torso and the waist either to completely suspend animals (air-stepping) or to maintain them in front of the camera on the treadmill (not weight support was provided).

paraplegic mice [4] = assay: Hindlimb movement generation in the air-stepping condition (suspended) in spinal cord transected mice
Source text: Animals and Treatment. Twenty-nine (n=29) male and female adult CD1 mice weighing 30-40 grams prior to the study (Charles River Laboratory, St-Constant, Canada). […] Animals were spinalized 7 days prior to testing. […] Bladders were emptied manually and animals were left in their cage without other interventions with food and water ad libitum until testing. […] A harness was put around the torso and the waist either to completely suspend animals (air-stepping) or to maintain them in front of the camera on the treadmill (not weight support was provided). Animals were not stimulated otherwise. Animals and Treatment. […] Bladders were emptied manually and animals were left in their cage without other interventions with food and water ad libitum until testing. Mice received a single injection (i.p.) of either 8-OHDPAT (5-HT1A/7); 5-CT (5-HT1A/7 agonist); buspirone (5-HT1A agonist); TFMPP (5-HT1B/2C agonist); quipazine (5-HT2B/2C); m-CPP (5-HT2B/2C agonist); SR-57227A (5-HT3) one week post-spinalization. […] Hindlimb movement recording. […] A harness was put around the torso and the waist either to completely suspend animals (air-stepping) or to maintain them in front of the camera on the treadmill (not weight support was provided). Animals were not stimulated otherwise. Locomotor-like movements were defined as rhythmic flexions and extensions occurring in both hindlimbs alternatively. Body weight support and plantar foot placement were facultative and therefore not required to be counted as locomotor-like (LM). In turn, non-locomotor movements (NLM) were defined as non-bilaterally alternating hindlimb movements most often including spasms, kicks, uncoordinated or unilateral movements, etc. In some cases, qualitative assessment methods were used to evaluate the level of induced hindlimb movements. The BBB locomotor scale (Basso, Bresnahan and Beattie, Exp Neurol 1996) and the AOB motor […], Orsal and Barthe, Eur J Neurosci 2002) were also occasionally used.

[5] = single injection 0.5-2.5 mg/kg, i.p., CD1 mice 6-7 days post-spinalization, treadmill
[6] = L-DOPA 40-100 mg/kg, treadmill, n=29
[7] = i.p. prior to 8-OH-DPAT, both strains

CCCN(CCC)C1CCc2ccc(O)cc2C1 (stereo not drawn) [7-OH-DPAT]
induction of LM [1, 5]: did not induce LM

CCCN(CCC)C1CCc2cccc(O)c2C1 (stereo not drawn) [8-OH-DPAT, 8-hydroxy-2-(di-n-propylamino)tetralin]
doses at which all-or-none-like effects (LM and NLM) start ([1]; 8-OH-DPAT i.p., spinal mice on a treadmill (FIG. 18), n=28): ≥ 1 mg/kg
induction of hindlimb movements (paraplegic mice [2]; 8-OH-DPAT 1 mg/kg, i.p., CD1 and C57BI/6 mice seven days after transection): induced hindlimb alternated movements in most mice
weight supported steps or plantar foot placements (paraplegic mice [2]; 8-OH-DPAT 1 mg/kg, i.p., seven days after transection): not found

NC[C@@H]1O[C@H](c2ccccc2)Cc2c1ccc(O)c2O [A-68930]
mice in which a mixture of LM and NLM was induced [1, 5]: 28%

N[C@@H](Cc1ccc(O)c(O)c1)C(=O)O [L-DOPA, L-(−)-2-amino-3-(3,4-dihydroxyphenyl)propionic acid]
weight bearing locomotor capabilities ([3]; L-DOPA 40-100 mg/kg, treadmill, all cases): no weight bearing locomotor capabilities
LM per min (average) [3, 6]: 6.1±1.3 per min
NLM per min (average) [3, 6]: 11.2±1.8 per min
uneffective doses on treadmill ([3]; L-DOPA i.p. with benserazide (1:4), CD1 mice 7 days post-spinalization, treadmill 8-10 cm/sec): < 40 mg/kg
time following injection at which hindlimb movements began ([3]; one mouse (FIG. 6): 40 mg/kg L-DOPA, treadmill): 20 min
hindlimb movement generation in air-stepping (paraplegic mice [4]; 40 mg/kg L-DOPA, 1-week paraplegic mouse, 20 min post-injection (no effect either 30 or 45 min later)): No hindlimb movements
hindlimb movement generation in air-stepping (paraplegic mice [4]; 80 mg/kg L-DOPA, 28 min after injection): No movements
hindlimb movement generation in air-stepping (paraplegic mice [4]; 30-100 mg/kg L-DOPA i.p. with benserazide (1:4), CD1 mice 7 days post-spinalization): did not induce hindlimb movements

Cc1cccc(C(=O)NCN2CCN(c3ccccc3C#N)CC2)c1 [PD168077]
induction of LM [1, 5]: did not induce LM

CC1CCN(CC[C@H]2CCCN2S(=O)(=O)c2cccc(O)c2)CC1 [SB269970]
effect of 5-HT7 antagonist pretreatment on 8-OH-DPAT-induced movement frequencies, amplitudes and angular excursions (paraplegic mice [2]; SB269970 2-15 mg/kg, i.p. prior to 8-OH-DPAT, both strains): importantly reduced

Oc1cc2c(c(Cl)c1O)CCNCC2c1ccccc1 (stereo not drawn) [SKF-81297]
ACOS (averaged combined score = NLM+[LM×2]) [1, 5]: > 8
mice in which a mixture of LM and NLM was induced [1, 5]: 71%

Cl.NC1CCN(c2cccc(Cl)n2)CC1 [SR-57227A]
locomotor-like movements per min on a treadmill ([3]; SR-57227A, treadmill, in some animals): approx. 2.5 per min
type of hindlimb movements induced (paraplegic mice [2]; SR-57227A i.p., air-stepping, open-field or treadmill): can induce only NLM
scores with the BBB and Antri motor scales (paraplegic mice [2]; SR-57227A, FIG. 16): very low scores
score on Basso, Beattie and Bresnahan (1996) locomotor scale (paraplegic mice [2]; SR-57227A, FIG. 16A): Non-significant scores

FC(F)(F)c1cccc(N2CCNCC2)c1 [TFMPP]
induction of LM (paraplegic mice [2]; i.p.): not to induce LM
induction of NLM (paraplegic mice [2]; i.p.): induced only NLM

COc1ccccc1N1CCN(CC(C(=O)NC(C)(C)C)c2ccccc2)CC1 (stereo not drawn) [WAY100,135]
effect of 5-HT1A antagonist pretreatment on 8-OH-DPAT-induced LM (paraplegic mice [2]; [7]): significantly reduced

COc1ccccc1N1CCN(CCN(C(=O)C2CCCCC2)c2ccccn2)CC1 [WAY100,635]
effect of 5-HT1A antagonist pretreatment on 8-OH-DPAT-induced LM (paraplegic mice [2]; [7]): significantly reduced

CN1CCc2cccc3c2[C@H]1Cc1ccc(O)c(O)c1-3 [apomorphine, (R)-5,6,6a,7-tetrahydro-6-methyl-4H-dibenzo-[de,g]quinoline-10,11-diol]
mice in which a mixture of LM and NLM was induced [1, 5]: 11%

Clc1cccc(N2CCNCC2)c1 [m-CPP]
induction of LM (paraplegic mice [2]; i.p.): not to induce LM
induction of NLM (paraplegic mice [2]; i.p.): dose-dependent non-locomotor movements were found

c1ccc2nc(N3CCNCC3)ccc2c1 [quipazine]
doses inducing some rhythmic LM in air-stepping (paraplegic mice [4]; quipazine i.p., air-stepping condition, FIG. 14): above 0.8 mg/kg
ineffective doses (paraplegic mice [4]; quipazine i.p., air-stepping, FIG. 14H): below 0.8 mg/kg
times less LM than 8-OH-DPAT tested in similar conditions (paraplegic mice [2]; quipazine, FIG. 9 vs. FIG. 15): 2-3 times
weight-supported stepping and plantar foot placement (paraplegic mice [2]; quipazine, air-stepping or treadmill 8-10 cm/sec): No weight-supported stepping and plantar foot placement were found
number of movements of each type (LM, NLM) (paraplegic mice [2]; quipazine, treadmill as well as air-stepping, FIG. 15): 8-15
